16 molecules from patent publication US12570655B2, “Cysteine covalent modifiers of AKT1 and uses thereof” (Terremoto Biosciences, Inc., priority 2023, dated 2026) can be followed below.

Read-outs that look alike come from different tables or passages of the source. A value given as a limit tells only on which side of the number the result lay.

What all share (type): cell-based
One test addresses T1, AKT2 (Homo sapiens, UniProt P31751).
T1 construct: expressed in transfected cells; host or cells: HEK293
Put plainly: Live cell AKT2 target engagement by NanoBRET competitive probe displacement. The following applies: HEK293 cells transfected with kinase-NanoLuciferase fusion, 2 h at 37° C. The method in brief:
(§1)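 NanoLuc-kinase fusions, HEK293, transfected overnight; compound serial dilution + ATP-competitive fluorescent tracer at ~EC50; 2 h, 37 °C. Read 460/600 nm with extracellular NanoLuc inhibitor; BRET = E600/E460; IC50 by Hill fit.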
Background: Bioluminescence resonance energy transfer reports proximity on the nanometre scale.

For the next test, the target named is T2, AKT1 E17K (Homo sapiens, UniProt P31749, E17K).
T2 construct: expressed in transfected cells; host or cells: HEK293
T2 sequence (P31749 whole entry E17K): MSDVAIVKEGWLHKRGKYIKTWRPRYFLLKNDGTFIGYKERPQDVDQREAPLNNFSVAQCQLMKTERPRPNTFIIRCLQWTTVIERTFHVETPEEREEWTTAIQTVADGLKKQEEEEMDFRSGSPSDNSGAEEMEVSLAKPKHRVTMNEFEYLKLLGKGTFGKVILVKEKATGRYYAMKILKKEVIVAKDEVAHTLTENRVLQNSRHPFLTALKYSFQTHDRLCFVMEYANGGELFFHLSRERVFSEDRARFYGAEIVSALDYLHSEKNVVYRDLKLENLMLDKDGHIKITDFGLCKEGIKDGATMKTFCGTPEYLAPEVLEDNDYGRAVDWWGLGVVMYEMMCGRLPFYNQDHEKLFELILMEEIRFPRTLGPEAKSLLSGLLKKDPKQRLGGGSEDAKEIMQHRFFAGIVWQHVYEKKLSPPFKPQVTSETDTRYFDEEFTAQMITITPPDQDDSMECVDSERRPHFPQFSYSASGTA
Put plainly: Live cell AKT1 E17K target engagement by NanoBRET competitive probe displacement. The following applies: HEK293 cells transfected with kinase-NanoLuciferase fusion, 2 h at 37° C. The method in brief: as §1

In a further test the target is T3, AKT1 WT (Homo sapiens, UniProt P31749).
T3 construct: expressed in transfected cells; host or cells: HEK293
T3 sequence (P31749 whole entry): as the sequence (P31749 whole entry E17K) above, with K17E counted along it
In words: Live cell AKT1 WT target engagement by NanoBRET competitive probe displacement. The following applies: HEK293 cells transfected with kinase-NanoLuciferase fusion, 2 h at 37° C. The method in brief:
as §1

Test [1] relates to LAPC4 prostate cancer cells. Put plainly: Antiproliferative effects in LAPC4 cells (CellTiter Glo). The following applies: LAPC4 cells (AKT1 E17K allele), read-out: LAPC4 proliferation IC50. In a few lines: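 Luminescent ATP read-out (CellTiter Glo) after 72 h compound exposure; 1,000 cells/well in IMDM + 12% FBS + 1% P/S. IC50 by Hill equation fit of luminescence vs. log(inhibitor).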
For orientation: Cellular ATP, detected with luciferase, serves as a proxy for viable cell number.

T1 sequence (P31751 whole entry): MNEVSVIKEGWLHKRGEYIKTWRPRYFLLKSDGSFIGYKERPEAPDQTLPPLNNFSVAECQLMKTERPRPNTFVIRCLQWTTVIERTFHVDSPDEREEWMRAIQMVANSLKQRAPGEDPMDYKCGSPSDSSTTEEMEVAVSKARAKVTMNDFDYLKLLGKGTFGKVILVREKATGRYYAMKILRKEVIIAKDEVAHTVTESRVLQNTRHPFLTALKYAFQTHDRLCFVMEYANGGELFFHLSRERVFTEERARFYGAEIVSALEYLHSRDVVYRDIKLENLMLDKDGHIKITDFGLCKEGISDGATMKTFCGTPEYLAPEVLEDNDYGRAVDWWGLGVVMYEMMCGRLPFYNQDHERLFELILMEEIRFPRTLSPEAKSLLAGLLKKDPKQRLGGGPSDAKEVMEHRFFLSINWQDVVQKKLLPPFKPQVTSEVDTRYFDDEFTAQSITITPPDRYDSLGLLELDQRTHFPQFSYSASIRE

As to `C=CC(=O)N1CCC(N[C@H]2CCc3cc(-n4c(-c5cccnc5N)nc5ccc(-n6cccn6)nc54)ccc32)C(C#N)C1` (stereo partly drawn) [Example 157, (3*,4*)-1-acryloyl-4-(((S)-5-(2-(2-aminopyridin-3-yl)-5-(1H-pyrazol-1-yl)-3H-imidazo[4,5-b]pyridin-3-yl)-2,3-dihydro-1H-inden-1-yl)amino)piperidine-3-carbonitrile], the IC50 is 216 nM on AKT2; 54.5 nM on AKT1 E17K; 17.2 nM on AKT1 WT; 110 nM in test [1] (Homo sapiens, LAPC4, 72 h).

Turning to `C=CC(=O)N1CCC(N[C@H]2CCc3cc(-n4c(-c5cccnc5N)nc5ccc(N6CC7CCC(C6)O7)nc54)ccc32)CC1` [Example 258, 1-(4-{[(1S)-5-[2-(2-aminopyridin-3-yl)-5-{8-oxa-3-azabicyclo[3.2.1]octan-3-yl}imidazo[4,5-b]pyridin-3-yl]-2,3-dihydro-1H-inden-1-yl]amino}piperidin-1-yl)prop-2-en-1-one], the IC50 on AKT2 amounted to 915 nM; at AKT1 E17K, 94.7 nM; on AKT1 WT, 1320 nM; in test [1] (Homo sapiens, LAPC4, 72 h), 526 nM.

Regarding `C=CC(=O)N1CCC(N[C@H]2CCc3cc(-n4c(-c5cccnc5N)nc5ccc(C6CC6)nc54)ccc32)C(C)C1` (single isomer, unassigned) [Example 229, 1-((3*,4*)-4-(((S)-5-(2-(2-aminopyridin-3-yl)-5-cyclopropyl-3H-imidazo[4,5-b]pyridin-3-yl)-2,3-dihydro-1H-inden-1-yl)amino)-3-methylpiperidin-1-yl)prop-2-en-1-one], the IC50 at AKT2 was 97.7 nM; on AKT1 E17K, 21.9 nM; at AKT1 WT, 756 nM; in test [1] (Homo sapiens, LAPC4, 72 h), 334 nM.

As to `C=CC(=O)N1CCC(N[C@@H]2c3ccc(-n4c(-c5cccnc5N)nc5ccc(-n6ccc(C#N)n6)nc54)cc3CC2F)CC1` (single isomer, unassigned) [Example 311, 1-(3-((1R,2*)-1-((1-acryloylpiperidin-4-yl)amino)-2-fluoro-2,3-dihydro-1H-inden-5-yl)-2-(2-aminopyridin-3-yl)-3H-imidazo[4,5-b]pyridin-5-yl)-1H-pyrazole-3-carbonitrile], the IC50 was 246 nM on AKT2; 34.9 nM on AKT1 E17K; 1190 nM at AKT1 WT; 496 nM in test [1] (Homo sapiens, LAPC4, 72 h).

Turning to `C=CC(=O)N1CCC(N[C@@H]2c3ccc(-n4c(-c5cccnc5N)nc5ccc(-n6ccc(F)n6)nc54)cc3CC2F)C[C@@H]1C` (single isomer, unassigned) [Example 271, 1-((2S,4*)-4-(((1R,2*)-5-(2-(2-aminopyridin-3-yl)-5-(3-fluoro-1H-pyrazol-1-yl)-3H-imidazo[4,5-b]pyridin-3-yl)-2-fluoro-2,3-dihydro-1H-inden-1-yl)amino)-2-methylpiperidin-1-yl)prop-2-en-1-one], the IC50 on AKT2 came out at 248 nM; on AKT1 E17K, 21.7 nM; on AKT1 WT, 928 nM; in test [1] (72 h), 674 nM.

Regarding `C=CC(=O)N1CCC(N[C@H]2CCc3cc(-n4c(-c5cccnc5N)nc5ccc(-n6ccc(C7CC7)n6)nc54)ccc32)CC1` [Example 208, (S)-1-(4-((5-(2-(2-aminopyridin-3-yl)-5-(3-cyclopropyl-1H-pyrazol-1-yl)-3H-imidazo[4,5-b]pyridin-3-yl)-2,3-dihydro-1H-inden-1-yl)amino)piperidin-1-yl)prop-2-en-1-one], the IC50 at AKT2 worked out at 26.1 nM; on AKT1 E17K, 5.74 nM; at AKT1 WT, 77.8 nM; in test [1] (Homo sapiens, LAPC4, 72 h), 69.8 nM.

As for `C=CC(=O)N1CCC(N[C@H]2CCc3cc(-n4c(-c5cccnc5N)nc5ccc(-c6nnc(C7CC7)s6)nc54)ccc32)CC1` [Example 320, (S)-1-(4-((5-(2-(2-aminopyridin-3-yl)-5-(5-cyclopropyl-1,3,4-thiadiazol-2-yl)-3H-imidazo[4,5-b]pyridin-3-yl)-2,3-dihydro-1H-inden-1-yl)amino)piperidin-1-yl)prop-2-en-1-one], the IC50 was determined as 45.5 nM on AKT2; 11.8 nM at AKT1 E17K; 290 nM at AKT1 WT; 78.2 nM in test [1] (Homo sapiens, LAPC4, 72 h).

Consider `C=CC(=O)N1CCCC(c2cn([C@H]3CCc4cc(-n5c(-c6cccnc6N)nc6ccc(-n7cccn7)nc65)ccc43)nn2)C1` (single isomer, unassigned) [Example 168, 1-((*)-3-(1-((S)-5-(2-(2-aminopyridin-3-yl)-5-(1H-pyrazol-1-yl)-3H-imidazo[4,5-b]pyridin-3-yl)-2,3-dihydro-1H-inden-1-yl)-1H-1,2,3-triazol-4-yl)piperidin-1-yl)prop-2-en-1-one], for which the IC50 turned out to be 369 nM on AKT2, 32.6 nM on AKT1 E17K, 571 nM on AKT1 WT and 858 nM in test [1] (72 h).

In the case of `C=CC(=O)N1CCC(N[C@H]2CCc3cc(-n4c(-c5cccnc5N)nc5ccc(-c6cnn(C(F)(F)F)c6)nc54)ccc32)CC1` [Example 225, 1-(4-{[(1S)-5-[2-(2-aminopyridin-3-yl)-5-[1-(trifluoromethyl)pyrazol-4-yl]imidazo[4,5-b]pyridin-3-yl]-2,3-dihydro-1H-inden-1-yl]amino}piperidin-1-yl)prop-2-en-1-one], the IC50 on AKT2 was found to be 239 nM; at AKT1 E17K it was 31.8 nM; on AKT1 WT, 308 nM; in test [1] (Homo sapiens, LAPC4, 72 h), 394 nM.

Regarding `C=CC(=O)N1CC2CCC(C1)C2N[C@H]1CCc2cc(-n3c(-c4cccnc4N)nc4ccc(-n5cccn5)nc43)ccc21` (stereo partly drawn) [Example 14, 1-(8-{[(1S)-5-[2-(2-aminopyridin-3-yl)-5-(pyrazol-1-yl)imidazo[4,5-b]pyridin-3-yl]-2,3-dihydro-1H-inden-1-yl]amino}-3-azabicyclo[3.2.1]octan-3-yl)prop-2-en-1-one], the IC50 on AKT2 worked out at 1420 nM; at AKT1 E17K, 436 nM; on AKT1 WT, 85.3 nM; in test [1] (Homo sapiens, LAPC4, 72 h) it was 1160 nM.

For `C=CC(=O)N1CCC(N[C@@H]2c3ccc(-n4c(-c5cccnc5N)nc5ccc(-n6ccc(F)n6)nc54)cc3CC2F)CC1` (single isomer, unassigned) [Example 237, 1-(4-(((1R,2*)-5-(2-(2-aminopyridin-3-yl)-5-(3-fluoro-1H-pyrazol-1-yl)-3H-imidazo[4,5-b]pyridin-3-yl)-2-fluoro-2,3-dihydro-1H-inden-1-yl)amino)piperidin-1-yl)prop-2-en-1-one], the IC50 at AKT2 is 89.5 nM; at AKT1 E17K, 17.7 nM; on AKT1 WT, 542 nM; in test [1] (72 h) it was 362 nM.

On to `C=CC(=O)N1C[C@H]2CCC[C@@H](C1)C2N[C@H]1CCc2cc(-n3c(-c4cccnc4N)nc4ccc(-n5cccn5)nc43)ccc21` (single isomer, unassigned) [Example 189, 1-((1R,5S,9*)-9-(((S)-5-(2-(2-aminopyridin-3-yl)-5-(1H-pyrazol-1-yl)-3H-imidazo[4,5-b]pyridin-3-yl)-2,3-dihydro-1H-inden-1-yl)amino)-3-azabicyclo[3.3.1]nonan-3-yl)prop-2-en-1-one], for which the IC50 on AKT2 was 740 nM; at AKT1 E17K it was 60.9 nM; on AKT1 WT, 1470 nM; in test [1] (72 h), 1370 nM.

For the molecule `C=CC(=O)N1CCC(N[C@H]2CCc3cc(-n4c(-c5cccnc5N)nc5ccc(-n6cccn6)nc54)ccc32)C[C@H]1COC` (single isomer, unassigned) [Example 130, 1-[(2S,4*)-4-{[(1S)-5-[2-(2-aminopyridin-3-yl)-5-(pyrazol-1-yl)imidazo[4,5-b]pyridin-3-yl]-2,3-dihydro-1H-inden-1-yl]amino}-2-(methoxymethyl)piperidin-1-yl]prop-2-en-1-one], the IC50 at AKT2 was 672 nM; on AKT1 E17K it was 76.4 nM; on AKT1 WT, 26.5 nM; in test [1] (72 h), 174 nM.

`C=CC(=O)N1CCC(N[C@H]2CCc3cc(-n4c(-c5cccnc5N)nc5ccc(-n6cccn6)nc54)ccc32)C(F)C1` (single isomer, unassigned) [Example 103, 1-((3*,4*)-4-(((S)-5-(2-(2-aminopyridin-3-yl)-5-(1H-pyrazol-1-yl)-3H-imidazo[4,5-b]pyridin-3-yl)-2,3-dihydro-1H-inden-1-yl)amino)-3-fluoropiperidin-1-yl)prop-2-en-1-one]: the IC50 on AKT2 was 547 nM; at AKT1 E17K it was 80.1 nM; on AKT1 WT, 19.3 nM; in test [1] (72 h), 317 nM.

For the molecule `C=CS(=O)(=O)Nc1ccccc1C(=O)N[C@H]1CCc2cc(-n3c(-c4cccnc4N)nc4ccc(-n5cccn5)nc43)ccc21` [Example 24, (S)-N-(5-(2-(2-aminopyridin-3-yl)-5-(1H-pyrazol-1-yl)-3H-imidazo[4,5-b]pyridin-3-yl)-2,3-dihydro-1H-inden-1-yl)-2-(vinylsulfonamido)benzamide], the IC50 worked out at 37.9 nM at AKT2; 14.1 nM at AKT1 E17K; 12 nM on AKT1 WT; 238 nM in test [1] (Homo sapiens, LAPC4, 72 h).

In the case of `C=CC(=O)N1CCC(NC2c3ccc(-n4c(-c5cccnc5N)nc5ccc(-n6cccn6)nc54)cc3CC2O)CC1` (single isomer, unassigned) [Example 151, 1-(4-(((1*,2*)-5-(2-(2-aminopyridin-3-yl)-5-(1H-pyrazol-1-yl)-3H-imidazo[4,5-b]pyridin-3-yl)-2-hydroxy-2,3-dihydro-1H-inden-1-yl)amino)piperidin-1-yl)prop-2-en-1-one], the IC50 on AKT2 was over 10000 nM; at AKT1 E17K it was over 1000 nM; on AKT1 WT it was over 1000 nM; in test [1] (72 h) it was over 10000 nM.
